The text below walks through data of US12122761B2, “2-azaspiro[3.4]octane derivatives as M4 agonists” (NOVARTIS AG, priority 2019, dated 2024).

Assay [1] deals with T1, human cloned CHRM4 receptor (M4_CHO cells) (Homo sapiens, UniProt P08173).
T1 construct: expressed in transfected cells; host or cells: CHO-K1
T1 sequence (P08173 1-479): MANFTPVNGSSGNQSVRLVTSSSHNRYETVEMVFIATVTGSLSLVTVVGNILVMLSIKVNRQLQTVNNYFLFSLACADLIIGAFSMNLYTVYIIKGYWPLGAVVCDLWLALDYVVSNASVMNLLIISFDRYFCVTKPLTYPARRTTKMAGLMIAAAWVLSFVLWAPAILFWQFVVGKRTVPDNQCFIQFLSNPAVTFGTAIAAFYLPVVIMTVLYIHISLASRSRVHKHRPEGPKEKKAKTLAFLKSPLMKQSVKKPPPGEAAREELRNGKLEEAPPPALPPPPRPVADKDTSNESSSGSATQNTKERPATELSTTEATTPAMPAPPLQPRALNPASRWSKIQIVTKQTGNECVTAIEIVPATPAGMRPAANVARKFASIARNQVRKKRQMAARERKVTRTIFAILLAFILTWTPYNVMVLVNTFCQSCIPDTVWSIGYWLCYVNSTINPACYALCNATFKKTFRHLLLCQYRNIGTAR
The assay can be described thus: CHRM4 Ca++ Flux Assay (agonist mode, FDSS 7000EX). In kind it is cell-based. Particulars: for M4 FDSS PA: Percent Activity; for EC50: geometric mean if tested more than once, read-out: M4 FDSS EC50. The essentials:
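Agonist-mode response was expressed as percent of the Carbachol EC100 and fitted with four-parameter nonlinear regression over an 11-point triplicate dose series. Intracellular Ca++ was tracked for 3 min by fluorescent dye in CHO-K1 cells stably expressing human CHRM4. Cells were preincubated 60 min with 20 μM ATP in buffer containing 2.5 mM probenecid.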

For assay [2], the target named is T2, human cloned CHRM5 receptor (M5_CHO) (Homo sapiens, UniProt P08912).
T2 construct: expressed in transfected cells; host or cells: CHO (M5_CHO)
T2 sequence (P08912 1-532): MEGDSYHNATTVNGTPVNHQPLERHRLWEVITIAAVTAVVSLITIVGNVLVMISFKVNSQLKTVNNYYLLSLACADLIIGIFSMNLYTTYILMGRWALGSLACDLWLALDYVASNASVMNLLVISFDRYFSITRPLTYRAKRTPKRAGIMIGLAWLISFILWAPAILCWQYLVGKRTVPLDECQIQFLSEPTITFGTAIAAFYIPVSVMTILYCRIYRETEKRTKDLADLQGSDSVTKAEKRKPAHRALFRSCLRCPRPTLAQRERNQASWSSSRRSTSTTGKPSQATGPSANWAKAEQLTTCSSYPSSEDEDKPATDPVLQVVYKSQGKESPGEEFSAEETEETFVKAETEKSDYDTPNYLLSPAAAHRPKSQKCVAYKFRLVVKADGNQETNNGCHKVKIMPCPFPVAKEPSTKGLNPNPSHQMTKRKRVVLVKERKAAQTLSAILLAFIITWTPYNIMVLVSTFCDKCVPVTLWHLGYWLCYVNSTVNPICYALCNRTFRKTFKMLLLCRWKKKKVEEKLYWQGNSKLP
The assay can be described thus: CHRM5 Ca++ Flux Assay (agonist mode, FDSS 7000EX). It counts as cell-based. Particulars: for M5 FDSS PA: Percent Activity measured to EC100 of Carbachol; for EC50: agonist mode, geometric mean if tested more than once, read-out: M5 FDSS EC50. The essentials:
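Stable CHO-K1 lines (human M3 or M5), calcium-dye loaded ≥1 h, assayed in Ca/Mg-free HBSS + 20 mM HEPES + 2.5 mM probenecid. 11-pt dose response, triplicate, 3 min fluorescence read. 4-parameter regression; % activity vs carbachol EC100.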

As a reminder, the EC50 is the concentration giving half of the maximal effect.

With `O=C(N1CC2(CC[C@@H](N3CCC(c4ccccc4OC(F)(F)F)CC3)C2)C1)C1(F)CC1` (single isomer, unassigned) [Example 9B, (R)-(1-fluorocyclopropyl)(6-(4-(2-(trifluoromethoxy)phenyl)piperidin-1-yl)-2-azaspiro[3.4]octan-2-yl)methanone or (S)-(1-fluorocyclopropyl)(6-(4-(2-(trifluoromethoxy)phenyl)piperidin-1-yl)-2-azaspiro[3.4]octan-2-yl)methanone], in assay [1], the “M4 FDSS PA” value stood at 66% and the EC50 is 5 nM. Moreover, in assay [2], the “M5 FDSS PA” value was determined as 0% and the EC50 is > 25000 nM.

In the case of `O=C(N1CC2(CC[C@@H](N3CCC(c4cc(F)ccc4OC4CCOCC4)CC3)C2)C1)C1(F)CC1` (single isomer, unassigned) [Example 9C, (R)-(6-(4-(5-fluoro-2-((tetrahydro-2H-pyran-4-yl)oxy)phenyl)piperidin-1-yl)-2-azaspiro[3.4]octan-2-yl)(1-fluorocyclopropyl)methanone or (S)-(6-(4-(5-fluoro-2-((tetrahydro-2H-pyran-4-yl)oxy)phenyl)piperidin-1-yl)-2-azaspiro[3.4]octan-2-yl)(1-fluorocyclopropyl)methanone], in assay [1], the “M4 FDSS PA” value turned out to be 54% and the EC50 was 1 nM. For the same compound, in assay [2], the “M5 FDSS PA” value is recorded as 0% and the EC50 was > 25000 nM.

For `O=C(N1CC2(CC[C@@H](N3CCC(c4cc(F)ccc4OC4CCOCC4)CC3)C2)C1)C1(F)CC1` (single isomer, unassigned) [Example 9D, (R)-(6-(4-(5-fluoro-2-((tetrahydro-2H-pyran-4-yl)oxy)phenyl)piperidin-1-yl)-2-azaspiro[3.4]octan-2-yl)(1-fluorocyclopropyl)methanone or (S)-(6-(4-(5-fluoro-2-((tetrahydro-2H-pyran-4-yl)oxy)phenyl)piperidin-1-yl)-2-azaspiro[3.4]octan-2-yl)(1-fluorocyclopropyl)methanone], in assay [1], the “M4 FDSS PA” value is 43% and the concentration giving a half-maximal response (EC50) was 75 nM. In assay [2], the “M5 FDSS PA” value amounted to 0% and the EC50 was > 25000 nM.

With `O=C(N1CC2(CC[C@@H](N3CCC(c4ccccc4OC4CCOCC4)CC3)C2)C1)C1(F)CC1` (single isomer, unassigned) [Example 9E, (R)-(1-fluorocyclopropyl)(6-(4-(2-((tetrahydro-2H-pyran-4-yl)oxy)phenyl)piperidin-1-yl)-2-azaspiro[3.4]octan-2-yl)methanone or (S)-(1-fluorocyclopropyl)(6-(4-(2-((tetrahydro-2H-pyran-4-yl)oxy)phenyl)piperidin-1-yl)-2-azaspiro[3.4]octan-2-yl)methanone], in assay [1], the “M4 FDSS PA” value was 55% and the EC50 stood at 1 nM. For the same compound, in assay [2], the “M5 FDSS PA” value turned out to be 0% and the EC50 is > 25000 nM.

With `O=C(N1CC2(CC[C@@H](N3CCC(c4ccccc4OC4CCOCC4)CC3)C2)C1)C1(F)CC1` (single isomer, unassigned) [Example 9F, (R)-(1-fluorocyclopropyl)(6-(4-(2-((tetrahydro-2H-pyran-4-yl)oxy)phenyl)piperidin-1-yl)-2-azaspiro[3.4]octan-2-yl)methanone or (S)-(1-fluorocyclopropyl)(6-(4-(2-((tetrahydro-2H-pyran-4-yl)oxy)phenyl)piperidin-1-yl)-2-azaspiro[3.4]octan-2-yl)methanone], in assay [1], the “M4 FDSS PA” value worked out at 47% and the EC50 stood at 156 nM. In assay [2], the “M5 FDSS PA” value turned out to be 0% and the EC50 was > 25000 nM.

With `O=C(N1CC2(CC[C@@H](N3CCC(c4ccccc4C4(O)CCOCC4)CC3)C2)C1)C1(F)CC1` (single isomer, unassigned) [Example 9G, (R)-(1-fluorocyclopropyl)(6-(4-(2-(4-hydroxytetrahydro-2H-pyran-4-yl)phenyl)piperidin-1-yl)-2-azaspiro[3.4]octan-2-yl)methanone or (S)-(1-fluorocyclopropyl)(6-(4-(2-(4-hydroxytetrahydro-2H-pyran-4-yl)phenyl)piperidin-1-yl)-2-azaspiro[3.4]octan-2-yl)methanone], in assay [1], the “M4 FDSS PA” value is listed as 14% and the EC50 was 76 nM. In assay [2], the “M5 FDSS PA” value came to 0% and the EC50 is > 25000 nM.

Regarding `O=C(N1CC2(CC[C@@H](N3CCC(c4ccccc4C4(O)CCOCC4)CC3)C2)C1)C1(F)CC1` (single isomer, unassigned) [Example 9H, (R)-(1-fluorocyclopropyl)(6-(4-(2-(4-hydroxytetrahydro-2H-pyran-4-yl)phenyl)piperidin-1-yl)-2-azaspiro[3.4]octan-2-yl)methanone or (S)-(1-fluorocyclopropyl)(6-(4-(2-(4-hydroxytetrahydro-2H-pyran-4-yl)phenyl)piperidin-1-yl)-2-azaspiro[3.4]octan-2-yl)methanone], in assay [1], the “M4 FDSS PA” value amounted to 0% and the EC50 is > 25000 nM. In addition, in assay [2], the “M5 FDSS PA” value is 0% and the EC50 is > 25000 nM.

Consider `O=C(N1CC2(CC[C@@H](N3CCC(c4cc(F)ccc4C4(O)CCOCC4)CC3)C2)C1)C1(F)CC1` (single isomer, unassigned) [Example 9I, (R)-(6-(4-(5-fluoro-2-(4-hydroxytetrahydro-2H-pyran-4-yl)phenyl)piperidin-1-yl)-2-azaspiro[3.4]octan-2-yl)(1-fluorocyclopropyl)methanone or (S)-(6-(4-(5-fluoro-2-(4-hydroxytetrahydro-2H-pyran-4-yl)phenyl)piperidin-1-yl)-2-azaspiro[3.4]octan-2-yl)(1-fluorocyclopropyl)methanone], for which, in assay [1], the “M4 FDSS PA” value was found to be 17% and the EC50 is 15 nM. In addition, in assay [2], the “M5 FDSS PA” value is listed as 0% and the concentration for a half-maximal effect (EC50) was > 25000 nM.

Regarding `O=C(N1CC2(CC[C@@H](N3CCC(c4cc(F)ccc4C4(O)CCOCC4)CC3)C2)C1)C1(F)CC1` (single isomer, unassigned) [Example 9J, (R)-(6-(4-(5-fluoro-2-(4-hydroxytetrahydro-2H-pyran-4-yl)phenyl)piperidin-1-yl)-2-azaspiro[3.4]octan-2-yl)(1-fluorocyclopropyl)methanone or (S)-(6-(4-(5-fluoro-2-(4-hydroxytetrahydro-2H-pyran-4-yl)phenyl)piperidin-1-yl)-2-azaspiro[3.4]octan-2-yl)(1-fluorocyclopropyl)methanone], in assay [1], the “M4 FDSS PA” value was 1% and the concentration for a half-maximal effect (EC50) amounted to 241 nM. Besides, in assay [2], the “M5 FDSS PA” value was 0% and the half-maximal effective concentration (EC50) is > 25000 nM.

On to `O=C(N1CC2(CC[C@@H](N3CCC(c4cc(F)ccc4C4CCOCC4)CC3)C2)C1)C1(F)CC1` (single isomer, unassigned) [Example 9K, (R)-(6-(4-(5-fluoro-2-(tetrahydro-2H-pyran-4-yl)phenyl)piperidin-1-yl)-2-azaspiro[3.4]octan-2-yl)(1-fluorocyclopropyl)methanone or (S)-(6-(4-(5-fluoro-2-(tetrahydro-2H-pyran-4-yl)phenyl)piperidin-1-yl)-2-azaspiro[3.4]octan-2-yl)(1-fluorocyclopropyl)methanone], for which, in assay [1], the “M4 FDSS PA” value is 56% and the EC50 was found to be 1 nM. In addition, in assay [2], the “M5 FDSS PA” value was 0% and the EC50 was > 25000 nM.

Take `O=C(N1CC2(CC[C@@H](N3CCC(c4cc(F)ccc4C4CCOCC4)CC3)C2)C1)C1(F)CC1` (single isomer, unassigned) [Example 9L, (R)-(6-(4-(5-fluoro-2-(tetrahydro-2H-pyran-4-yl)phenyl)piperidin-1-yl)-2-azaspiro[3.4]octan-2-yl)(1-fluorocyclopropyl)methanone or (S)-(6-(4-(5-fluoro-2-(tetrahydro-2H-pyran-4-yl)phenyl)piperidin-1-yl)-2-azaspiro[3.4]octan-2-yl)(1-fluorocyclopropyl)methanone]: in assay [1], the “M4 FDSS PA” value is 49% and the EC50 is 26 nM. Also, in assay [2], the “M5 FDSS PA” value is listed as 0% and the EC50 was > 25000 nM.
